Common to all, as to experiment: CellTiter-Glo cell viability assay (example 57)
For orientation: Cellular ATP, detected with luciferase, serves as a proxy for viable cell number.

The test system of one assay is U937. The format is cell-based. The settings on record: Homo sapiens, U-937; U937 (Leukemia); Cell Titer-Glo; 72 h. On the procedure: (§1) The human breast cancer cell line SkBr3 and the human metastatic prostate carcinoma cell line LnCAP were cultured in Dulbecco's modified Eagle's medium (DMEM) supplemented with 10% fetal bovine serum (FBS) and 0.1% sodium pyruvate. The human myelocytic cell line U937 and NB4 were maintained in RPMI medium 1640 1× (Gibco 21875-034) supplemented with 10 % Fetal Bovine Serum (FBS, Eurobio S39130-0808) Kasumi and SKM-1 were maintained in RPMI medium 1640 1× (Gibco 21875-034) supplemented with 20 % Fetal Bovine Serum (FBS, Eurobio S39130-0808), HL60 was maintained in Iscove's modified Dulbecco's medium 1× (IMDM, Gibco 21890) supplemented with 20% Fetal Bovine Serum (FBS, Eurobio S39130-0808), cell line was maintained in MEM alpha medium (Gibco 22561-021) supplemented with 10% FBS at 37° C. with 5% CO2. Cell outgrowth was measured using the CellTiter-Glo luminescent cell viability assay as described by the manufacturer (Promega, Ref G7571 Madison, Wis., USA) using a FLUOstar optima luminometer (BMG Labtech, Ortenberg, Germany).
(§2) Briefly, for adherent cells, 10^4 cells were plated onto 96-well plates (white with clear bottom (3610, Corning Costar) in 100 μL of media per well and were allowed to grow overnight before the assay. For cells growing in suspension, 10^4 cells were plated onto 96-well plates immediately before the assay. […] Vehicle (DMSO) was used as a control, and all compounds were tested in a constant percentage of DMSO (1%). After addition of 50 μL of CellTiter GLO, luminescence was measured using a Centro luminometer (Berthold). EC50 values were determined as the dose of compound required to reduce luminescent values to 50% of the signal obtained for untreated cell cultures. All experiments were done in duplicate and repeated two independent times.

The subject of a further assay is SKM-1. It counts as cell-based. The settings on record: Homo sapiens; SKM-1 (Leukemia); Cell Titer-Glo; 72 h. On the procedure:
as §1, §2

The test system of a further assay is Kasumi-1. The format is cell-based. The following applies: Homo sapiens; Kasumi-1 (Leukemia); Cell Titer-Glo; 72 h. As to the method:
as §1, §2

The next assay concerns SkBr3. It counts as cell-based. The following applies: Homo sapiens, SK-BR-3; SkBr3 (Breast); Cell Titer-Glo; 72 h. As to the method: as §1, §2
The test system of another assay is HL60. It counts as cell-based. The settings on record: Homo sapiens, HL-60; HL60 (Leukemia); Cell Titer-Glo; 72 h. On the procedure: as §1, §2
The next assay concerns LNCaP. The format is cell-based. The following applies: Homo sapiens; LNCaP (Prostate); Cell Titer-Glo; 72 h. On the procedure: as §1, §2
The next assay deals with NB4. It counts as cell-based. The following applies: Homo sapiens, NB-4; NB4 (Leukemia); Cell Titer-Glo; 72 h. On the procedure:
as §1, §2

The subject of another assay is B16F10. The format is cell-based, human. The settings on record: Mus musculus, B16-F10; B16F10 (Melanoma); Cell Titer-Glo; 72 h.

Drawing on patent US10179770B2, “Quinolines derivatives as novel anticancer agents” (GENOSCIENCE PHARMA, priority 2013, dated 2019), this text covers EC50 for one compound.

The term EC50 denotes the concentration that produces a half-maximal response. Read a low EC50 as an effect from little substance. As for `CCN(CC)C1CCN(C(C)c2cc(-c3ccccc3)nc3ccccc23)CC1.Cl.Cl` (centres unmarked) [XIX-3, 2-phenyl-4-{1-[4-(N,N-diethylamino)piperidin-1-yl]-eth-1-yl}quinoline dihydrochloride], the EC50 was 35 µM in the assay with U937; 30 µM in the assay on SKM-1; 30 µM in the assay on Kasumi-1; 20 µM in the assay with SkBr3; 40 µM in the assay with HL60; 25 µM in the assay on LNCaP. Besides, the EC50 came to 37 µM in the assay with NB4 and 10 µM in the assay with B16F10.
